{"source": "ChEMBL document CHEMBL4417631", "about": "“Oral peptide inhibitors of interleukin-23 receptor and their use to treat inflammatory bowel diseases” (2017)", "key": {"[1]": {"target": "T1, Interleukin-23 receptor (Homo sapiens, UniProt Q5VWK5)", "T1 sequence (Q5VWK5 whole entry)": "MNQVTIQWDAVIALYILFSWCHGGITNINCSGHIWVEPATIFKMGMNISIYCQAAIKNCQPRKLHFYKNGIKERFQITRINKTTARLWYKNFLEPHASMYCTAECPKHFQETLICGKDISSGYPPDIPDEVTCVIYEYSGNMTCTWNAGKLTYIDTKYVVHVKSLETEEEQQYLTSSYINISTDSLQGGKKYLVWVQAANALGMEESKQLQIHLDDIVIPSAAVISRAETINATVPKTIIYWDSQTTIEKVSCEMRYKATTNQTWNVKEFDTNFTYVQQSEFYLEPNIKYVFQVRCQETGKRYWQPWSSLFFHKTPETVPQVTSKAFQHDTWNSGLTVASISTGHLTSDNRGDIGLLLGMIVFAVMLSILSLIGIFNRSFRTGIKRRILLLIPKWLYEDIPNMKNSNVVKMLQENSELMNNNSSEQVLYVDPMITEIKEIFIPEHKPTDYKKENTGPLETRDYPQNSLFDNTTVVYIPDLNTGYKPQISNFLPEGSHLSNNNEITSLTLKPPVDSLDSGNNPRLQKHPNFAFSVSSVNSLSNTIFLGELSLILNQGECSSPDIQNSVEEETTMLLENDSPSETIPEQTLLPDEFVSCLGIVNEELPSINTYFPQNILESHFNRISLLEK", "assay": "Inhibition of interleukin-23 receptor in human DB cells assessed as reduction in IL-23-stimulated STAT3 phosphorylation incubated for 30 mins by HTRF assay", "assay_type": "cell-based"}, "[2]": {"assay": "Inhibition of interleukin-23 receptor in rat splenocytes assessed as reduction in IL23-stimulated IL-17A production incubated for 3 hrs by ELISA", "assay_type": "cell-based"}, "[3]": {"target": "T2, Interleukin-12 receptor subunit beta-1 (Homo sapiens, UniProt P42701)", "assay": "Binding affinity to human recombinant interleukin-12 receptor beta1 by SPR assay"}, "[4]": {"assay": "Inhibition of interleukin-23 binding to rat interleukin-23 receptor incubated for 2 hrs by competitive binding ELISA"}, "[5]": {"tested_on": "Rattus norvegicus", "assay": "Anti-colitis activity in Sprague-Dawley rat model of TNBS-induced colitis assessed as reduction in localized lesions in mucosa and sub-mucosal regions at 20 mg/kg, po dosed 3 times per day for 8 days starting 24 hrs before TNBS injection by H and E staining based histological assay", "assay_type": "functional, organism-based"}, "[6]": {"species_on_record": "Homo sapiens", "assay": "Binding affinity to human FC-tagged human recombinant interleukin-12 receptor beta1/human FC-tagged human interleukin-23 receptor assessed as association constant by SPR assay"}, "[7]": {"assay": "Ratio of IC50 for inhibition of interleukin-23 receptor in rat splenocytes assessed as reduction in IL23-stimulated IL-17A production incubated for 3 hrs by ELISA to plasma concentration in Sprague-Dawley rat model of TNBS-induced colitis"}, "[8]": {"target": "T1, Interleukin-23 receptor", "assay": "Binding affinity to human recombinant interleukin-23 receptor by SPR assay"}, "[9]": {"assay": "Half life in DTT at 50 uM up up to 120 mins by reverse phase HPLC and UV detection based assay", "assay_type": "physicochemical"}, "[10]": {"tested_on": "Rattus norvegicus", "assay": "Anti-colitis activity in Sprague-Dawley rat model of TNBS-induced colitis assessed as improvement in gross pathology scores at 20 mg/kg, po dosed 3 times per day for 8 days starting 24 hrs before TNBS injection", "assay_type": "functional, organism-based"}, "[11]": {"target": "T1, Interleukin-23 receptor", "assay": "Inhibition of interleukin-23 receptor in human natural killer cells assessed as reduction in IL23/IL18-induced IFNgamma production incubated for 20 to 24 hrs by ELISA", "assay_type": "cell-based"}, "[12]": {"assay": "Inhibition of interleukin-6 binding to human interleukin-6 receptor incubated for 2 hrs by competitive binding ELISA"}, "[13]": {"assay": "AUC in rat plasma at 20 mg/kg, po", "assay_type": "ADME, organism-based"}, "[14]": {"assay": "Inhibition of interleukin-23 binding to cynomolgus monkey interleukin-23 receptor incubated for 2 hrs by competitive binding ELISA", "design": "species or system Macaca fascicularis"}, "[15]": {"target": "T3, Interleukin-23 receptor (Homo sapiens) (UniProt Q5VWK5)", "T3 sequence (whole entry)": "T1 sequence (Q5VWK5 whole entry)", "assay": "Binding affinity to human FC-tagged human interleukin-23 receptor assessed as association constant by SPR assay"}, "[16]": {"assay": "Half life in simulated gastric fluid at 20 uM by LC-MS/MS analysis", "assay_type": "ADME"}, "[17]": {"assay": "Binding affinity to human FC-tagged human recombinant interleukin-12 receptor beta1/human FC-tagged human interleukin-23 receptor assessed as dissociation rate constant by SPR assay"}, "[18]": {"assay": "Half life in simulated intestinal fluid at 20 uM by LC-MS/MS analysis", "assay_type": "ADME"}, "[19]": {"assay": "AUC in rat colon mucosa at 20 mg/kg, po", "assay_type": "ADME, organism-based, Colonic mucosa", "settings": "in vivo"}, "[20]": {"tested_on": "Rattus norvegicus", "assay": "Anti-colitis activity in Sprague-Dawley rat model of TNBS-induced colitis assessed as reduction in mucosal necrosis at 160 mg/kg/day, po starting 24 hrs before TNBS injection", "assay_type": "functional, organism-based"}, "[21]": {"assay": "Half life in human intestinal fluid at 20 uM by LC-MS/MS analysis", "assay_type": "ADME"}, "[22]": {"tested_on": "PBMC", "assay": "Inhibition of IL12-stimulated IFNgamma production in PHA-activated human PBMC by ELISA", "assay_type": "functional, cell-based"}, "[23]": {"target": "T1, Interleukin-23 receptor", "assay": "Inhibition of interleukin-23 binding to human interleukin-23 receptor incubated for 2 hrs by competitive binding ELISA"}, "[24]": {"tested_on": "Rattus norvegicus", "assay": "Anti-colitis activity in Sprague-Dawley rat model of TNBS-induced colitis assessed as improvement in histological scores at 160 mg/kg/day, po starting 24 hrs before TNBS injection by H and E staining based histological assay", "assay_type": "functional, organism-based"}, "[25]": {"tested_on": "Rattus norvegicus", "assay": "Anti-colitis activity in Sprague-Dawley rat model of TNBS-induced colitis assessed as induction of healing at necrosis sites in colon at 20 mg/kg, po dosed 3 times per day for 8 days starting 24 hrs before TNBS injection by H and E staining based histological assay", "assay_type": "functional, organism-based"}, "[26]": {"target": "T1, Interleukin-23 receptor", "assay": "Binding affinity to human FC-tagged human interleukin-23 receptor assessed as dissociation rate constant by SPR assay"}, "[27]": {"assay": "Binding affinity to human FC-tagged human recombinant interleukin-12 receptor beta1/human FC-tagged human interleukin-23 receptor by SPR assay"}, "[28]": {"tested_on": "Rattus norvegicus", "assay": "Anti-colitis activity in Sprague-Dawley rat model of TNBS-induced colitis assessed as reduction in inflammation at 160 mg/kg/day, po starting 24 hrs before TNBS injection", "assay_type": "functional, organism-based"}, "[29]": {"assay": "Ratio of IC50 for inhibition of interleukin-23 binding to rat interleukin-23 receptor incubated for 2 hrs by competitive binding ELISA to plasma concentration in Sprague-Dawley rat model of TNBS-induced colitis"}, "[30]": {"assay": "AUC in rat small intestinal mucosa at 20 mg/kg, po", "assay_type": "ADME, organism-based, Mucosa of small intestine", "settings": "in vivo"}, "[31]": {"tested_on": "Rattus norvegicus", "assay": "Anti-colitis activity in Sprague-Dawley rat model of TNBS-induced colitis assessed as reduction in colon weight/colon length ratio at 20 mg/kg, po dosed 3 times per day for 8 days starting 24 hrs before TNBS injection", "assay_type": "functional, organism-based"}, "[32]": {"tested_on": "Rattus norvegicus", "assay": "Anti-colitis activity in Sprague-Dawley rat model of TNBS-induced colitis assessed as reduction in inflammation at 20 mg/kg, po dosed 3 times per day for 8 days starting 24 hrs before TNBS injection", "assay_type": "functional, organism-based"}, "[33]": {"target": "T1, Interleukin-23 receptor", "assay": "Binding affinity to human FC-tagged human interleukin-23 receptor by SPR assay"}, "[34]": {"target": "T2, Interleukin-12 receptor subunit beta-1", "assay": "Binding affinity to human FC-tagged human recombinant interleukin-12 receptor beta1 up to […] by SPR assay"}, "[35]": {"tested_on": "Rattus norvegicus", "assay": "Anti-colitis activity in Sprague-Dawley rat model of TNBS-induced colitis assessed as reduction in colon wall thickness at 160 mg/kg/day, po starting 24 hrs before TNBS injection", "assay_type": "functional, organism-based"}, "[36]": {"assay": "Drug recovery in rat feces at 20 mg/kg, po", "assay_type": "ADME, organism-based", "settings": "read-out: Drug recovery"}}, "note": "Activity calls are given as the source filed them. The rule behind the calls is not given here."}
{"smiles": "CC(=O)N[C@H]1CCSC[C@@H](C(=O)N[C@@H](Cc2ccc(OCCN)cc2)C(=O)N[C@@H](Cc2c[nH]c3ccccc23)C(=O)N[C@@](C)(CCCCN)C(=O)N[C@@H](CCC(=O)O)C(=O)N[C@@H](CC(N)=O)C(=O)NCC(N)=O)NC(=O)[C@H](CCC(N)=O)NC(=O)[C@H](Cc2c[nH]c3ccccc23)NC(=O)[C@H]([C@@H](C)O)NC(=O)[C@H](CCC(N)=O)NC1=O", "values": [{"measurement": "IC50", "setting": "[1]", "value": "< 10", "unit": "nM"}, {"measurement": "IC50", "setting": "[2]", "value": 130, "unit": "nM"}, {"measurement": "Kd", "setting": "[3]", "value": "Not Active"}, {"measurement": "IC50", "setting": "[4]", "value": "10 to 25", "unit": "nM"}, {"measurement": "Activity", "setting": "[5]", "value": "Active"}, {"measurement": "Ka", "setting": "[6]", "value": 1.59, "unit": "×10⁷ /M/s"}, {"measurement": "Ratio", "setting": "[7]", "value": "<2"}, {"measurement": "Kd", "setting": "[8]", "value": 2.4, "unit": "nM"}, {"measurement": "half-life at 50 µM", "setting": "[9]", "value": "> 120", "unit": "min"}, {"measurement": "Activity", "setting": "[10]", "value": "Active"}, {"measurement": "IC50", "setting": "[11]", "value": "25 to 27", "unit": "nM"}, {"measurement": "IC50", "setting": "[12]", "value": "> 100", "unit": "µM"}, {"measurement": "AUC", "setting": "[13]", "value": 300, "unit": "ng·h/mL"}, {"measurement": "IC50", "setting": "[14]", "value": 7, "unit": "nM"}, {"measurement": "Ka", "setting": "[15]", "value": 1.37, "unit": "×10⁷ /M/s"}, {"measurement": "half-life at 20 µM", "setting": "[16]", "value": "120 to 1440", "unit": "min"}, {"measurement": "Kd", "setting": "[17]", "value": 0.041, "unit": "s⁻¹"}, {"measurement": "half-life at 20 µM", "setting": "[18]", "value": "360 to 1440", "unit": "min"}, {"measurement": "AUC", "setting": "[19]", "value": 77, "unit": "µg·h/g"}, {"measurement": "Activity", "setting": "[20]", "value": "Active"}, {"measurement": "half-life at 20 µM", "setting": "[21]", "value": "> 1440", "unit": "min"}, {"measurement": "IC50", "setting": "[22]", "value": "> 100", "unit": "µM"}, {"measurement": "IC50", "setting": "[23]", "value": "10 to 25", "unit": "nM"}, {"measurement": "Activity", "setting": "[24]", "value": "Active"}, {"measurement": "Activity", "setting": "[25]", "value": "Active"}, {"measurement": "Kd", "setting": "[26]", "value": 0.033, "unit": "s⁻¹"}, {"measurement": "Kd", "setting": "[27]", "value": 2.56, "unit": "nM"}, {"measurement": "Activity", "setting": "[28]", "value": "Active"}, {"measurement": "Ratio", "setting": "[29]", "value": "<2"}, {"measurement": "AUC", "setting": "[30]", "value": 355, "unit": "µg·h/g"}, {"measurement": "Activity", "setting": "[31]", "value": "Active"}, {"measurement": "Activity", "setting": "[32]", "value": "Active"}, {"measurement": "Kd", "setting": "[33]", "value": 2.42, "unit": "nM"}, {"measurement": "Activity", "setting": "[34]", "value": "inactive"}, {"measurement": "Activity", "setting": "[35]", "value": "Active"}, {"measurement": "dose excreted", "setting": "[36]", "value": 40, "unit": "%"}]}
